Experimental data reported in patent publication US20130302497A1, “Taste Enhancement” (Givaudan S.A., priority 2010, published 2013).

Assay: Expert panel taste evaluation (umami/salty) in chicken broth with or without added choline chloride
Assay type: in vivo
Details: for Taste description, with choline added: choline chloride 7 ppm final concentration; for Taste description, material alone: without choline chloride
Description: The materials described below were evaluated at the concentration specified by an expert panel in a chicken broth (commercial Swanson chicken broth, with no MSG added, 50% reduced sodium 430 mg/serving) with or without added choline chloride (7 ppm final concentration).

[1] = 10 ppm in Swanson chicken broth, no MSG added, 50% reduced sodium

Compound	Taste description, with choline added (1 ppm in chicken broth)	Taste description, material alone (1 ppm in chicken broth)	Taste description, material alone [1]	Taste description, with choline added (10 ppm in chicken broth)	further results
COc1cc(C)ccc1CNC(=O)C(=O)NCCc1ccccn1 [N-(2-methoxy-4-methylbenzyl)-N′-(2-(pyridin-2-yl)ethyl)oxalamide]	–	–	–	–	Taste description, with choline added (0.5 ppm in chicken broth): more lingering umami, kokumi; Taste description, material alone (0.5 ppm in chicken broth): lingering umami
CCCCCOc1ccc(C(=O)CCc2ccccn2)c(O)c1 [1-(2-hydroxy-4-(pentyloxy)phenyl)-3-(pyridine-2-yl)propan-1-one]	enhanced the saltiness and umami character with a well rounded taste profile	salty and umami	–	–	–
COc1ccc(C(=O)CCc2ccccn2)c(O)c1 [1-(2-hydroxy-4-methoxyphenyl)-3-(pyridin-2-yl)propan-1-one]	–	–	Umami, lingering, body	enhancement of umami, enhancement of saltiness	–
Cc1cc(O)c(C(=O)CCc2ccccn2)cc1C [1-(2-hydroxy-4,5-dimethylphenyl)-3-(pyridin-2-yl)propan-1-one]	–	–	Weak umami	Better, stronger umami, saltier	–
CC(C)=CCC/C(C)=C/CNC(=O)C1CC1 [(E)-N-(3,7-dimethylocta-2,6-dienyl)cyclopropanecarboxamide]	–	–	–	–	Taste description, with choline added (2 ppm in chicken broth): Very full, more salty, umami; Taste description, material alone (2 ppm in chicken broth): Umami, salty, not good aftertaste
CC(C)COc1ccc(C(=O)CCc2ccccn2)c(O)c1 [1-(2-hydroxy-4-isobutoxyphenyl)-3-(pyridine-2-yl)propan-1-one]	enhanced the saltiness and umami character with a well rounded taste profile	Salty and umami	–	–	–
